Biological target: T1, USP1, construct USP1 (1-785, GG670, 671AA)/UAF1 (1-677)-Flag (Homo sapiens, UniProt O94782, G670A/G671A)
T1 construct: USP1, construct USP1 (1-785, GG670, 671AA)/UAF1 (1-677)-Flag; Viva; purchased Viva
Test: Ubiquitin-Rhodamine 110 assay for USP1 activity
Format: biochemical
Details: enzyme 25 pM, Ub-Rh110 25 nM, 30 minutes preincubation, 8- or 10-point dilution
Method: Example A: Ubitquin-Rhodamine 110 Assay for USP1 Activity
The HTS assay was performed in a final volume of 20 μL in assay buffer containing 20 mM Tris-HCl (pH 8.0, (1M Tris-HCl, pH 8.0 solution; Corning 46-031-CM)), 2 mM CaCl2) (1M Calcium Chloride solution; Sigma #21114) 1 mM GSH (L-Glutathione reduced; Sigma #G4251), 0.01% Prionex ([…] filtered, Sigma #G-0411), and 0.01% Triton X-100. Stock compound solutions were stored at −20° C. as 10 mM in DMSO. Up to 1 month prior to the assay, 2 mM test compounds were pre-dispensed into assay plates (Black, low volume; Corning #3820) and frozen at −20° C. Pre-stamped assay plates were allowed to come to room temperature on the day of the assay. For the screen, 100 nL of 2 mM was pre-dispensed for a final screening concentration of 10 μM (DMSO(fc)=0.5%). The final concentration of the enzyme (USP1, construct USP1 (1-785, GG670, 671AA)/UAF1 (1-677)-Flag; Viva) in the assay was 100 pM. Final substrate (Ub-Rh110; Ubiquitin-Rhodamine 110, R&D Systems #U-555) concentration was 25 nM with [Ub-Rh110]<<Km. 10 μL of 2× enzyme was added to assay plates (pre-stamped with compound) either simultaneously with 2×Ub-Rh110 or preincubated with USP1 40 minutes prior to the addition of 10 μL of 2×Ub-Rh110 to compound plates. Plates were incubated stacked for 45 minutes at room temperature before fluorescence was read on the Envision (Excitation at 485 nm and Emission at 535 nm; Perkin Elmer) or on the PheraSTAR (Excitation at 485 nm and Emission at 535 nm; BMG Labtech).
Nanoliter quantities of either an 8-point or 10-point, 3-fold serial dilution in DMSO were pre-dispensed into assay plates (Perkin Elmer, ProxiPlate-384 F Plus, #6008269) for a final test concentration range of either 25 μM to 11 nM or 25 μM to 1.3 nM, respectively. The final concentration of the enzyme (USP1, construct USP1 (1-785, GG670, 671AA)/UAF1 (1-677)-Flag; Viva) in the assay was 25 pM. Final substrate (Ub-Rh110; Ubiquitin-Rhodamine 110, R&D Systems #U-555) concentration was 25 nM with [Ub-Rh110]<<Km. 5 μL of 2× enzyme was added to assay plates (pre-stamped with compound) preincubated with USP1 for 30 minutes and then 5 μL of 2×Ub-Rh110 was added to assay plates. Plates were incubated stacked for 20 minutes at room temperature before 5 μL of stop solution (final concentration of 10 mM citric acid in assay buffer (Sigma, #251275-500G)). Fluorescence was read on the Envision (Excitation at 485 nm and Emission at 535 nm; Perkin Elmer) or on the PheraSTAR (Excitation at 485 nm and Emission at 535 nm; BMG Labtech).
For both assay formats data were reported as percent inhibition compared with control wells based on the following equation: % inh=[1−((FLU−AveLow)/(AveHigh−AveLow))]×100 where FLU=measured Fluorescence, AveLow=average Fluorescence of no enzyme control (n=16), and AveHigh=average Fluorescence of DMSO control (n=16). IC50 values were determined by curve fitting of the standard 4 parameter logistic fitting algorithm included in the Activity Base software package: IDBS XE Designer Model205. Data is fitted using the Levenburg Marquardt algorithm.

T1 sequence (O94782 whole entry G670A/G671A): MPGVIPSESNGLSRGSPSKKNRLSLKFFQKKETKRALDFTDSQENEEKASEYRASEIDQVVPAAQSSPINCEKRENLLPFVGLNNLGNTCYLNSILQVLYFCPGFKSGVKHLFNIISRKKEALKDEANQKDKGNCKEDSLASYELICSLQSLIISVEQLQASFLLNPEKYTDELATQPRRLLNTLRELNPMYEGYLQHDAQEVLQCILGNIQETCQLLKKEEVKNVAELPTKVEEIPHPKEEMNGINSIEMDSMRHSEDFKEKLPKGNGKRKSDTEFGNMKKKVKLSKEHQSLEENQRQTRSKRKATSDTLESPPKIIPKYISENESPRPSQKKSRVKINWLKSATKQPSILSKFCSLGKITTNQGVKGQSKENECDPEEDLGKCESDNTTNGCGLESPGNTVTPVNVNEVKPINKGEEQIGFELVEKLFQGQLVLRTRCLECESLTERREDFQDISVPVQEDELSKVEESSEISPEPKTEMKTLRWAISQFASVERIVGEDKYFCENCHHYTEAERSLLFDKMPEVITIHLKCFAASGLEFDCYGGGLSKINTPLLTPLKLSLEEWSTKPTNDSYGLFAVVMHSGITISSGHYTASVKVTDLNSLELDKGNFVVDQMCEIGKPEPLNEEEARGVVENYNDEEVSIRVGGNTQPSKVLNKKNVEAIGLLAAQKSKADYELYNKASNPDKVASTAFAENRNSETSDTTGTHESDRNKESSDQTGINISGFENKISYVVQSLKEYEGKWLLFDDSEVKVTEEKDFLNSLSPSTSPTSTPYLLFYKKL
T1 sequence (Q8TAF3 whole entry partner): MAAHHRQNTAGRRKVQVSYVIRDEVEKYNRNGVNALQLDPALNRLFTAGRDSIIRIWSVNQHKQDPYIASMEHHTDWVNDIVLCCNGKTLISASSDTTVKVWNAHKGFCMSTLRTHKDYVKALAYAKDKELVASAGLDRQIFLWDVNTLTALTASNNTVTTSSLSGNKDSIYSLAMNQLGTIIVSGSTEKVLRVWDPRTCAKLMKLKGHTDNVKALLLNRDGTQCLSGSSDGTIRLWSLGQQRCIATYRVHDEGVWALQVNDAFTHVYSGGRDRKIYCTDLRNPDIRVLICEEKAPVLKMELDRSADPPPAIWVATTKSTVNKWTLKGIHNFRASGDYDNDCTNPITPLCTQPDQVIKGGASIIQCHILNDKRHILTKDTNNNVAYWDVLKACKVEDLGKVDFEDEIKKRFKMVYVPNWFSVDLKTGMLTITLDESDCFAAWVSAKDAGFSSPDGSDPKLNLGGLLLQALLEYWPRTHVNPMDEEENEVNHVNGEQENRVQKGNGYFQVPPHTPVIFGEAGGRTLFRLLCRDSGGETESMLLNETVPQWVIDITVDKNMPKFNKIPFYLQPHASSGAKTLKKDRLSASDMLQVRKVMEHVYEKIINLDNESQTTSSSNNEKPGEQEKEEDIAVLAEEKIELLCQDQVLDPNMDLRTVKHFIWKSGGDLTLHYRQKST

Compound	IC50 [nM]
CC(C)c1ncccc1-c1ncc2c(n1)N(Cc1ccc(-c3nc(C(F)(F)F)cn3C)cc1)C(=O)CO2 [Example I-4, 8-([4-[1-methyl-4-(trifluoromethyl)-1H-imidazol-2-yl]phenyl]methyl)-2-[2-(propan-2-yl)pyridin-3-yl]-6H,7H,8H-pyrimido[5,4-b][1,4]oxazin-7-one]	10 to 100
CC(C)c1ncccc1-c1ncc2c(n1)N(Cc1ccc(-c3nc(C(F)(F)F)cn3C)cc1)CCO2 [Example I-2, 3-[8-([4-[1-methyl-4-(trifluoromethyl)-1H-imidazol-2-yl]phenyl]methyl)-6H,7H,8H-pyrimido[5,4-b][1,4]oxazin-2-yl]-2-(propan-2-yl)pyridine]	≤ 10
CC(C)c1ccccc1-c1ncc2c(n1)N(Cc1ccc(-c3nc(C(F)(F)F)cn3C)cc1)C(=O)C2 [Example I-18, 7-([4-[1-methyl-4-(trifluoromethyl)-1H-imidazol-2-yl]phenyl]methyl)-2-[2-(propan-2-yl)phenyl]-5H,6H,7H-pyrrolo[2,3-d]pyrimidin-6-one]	≤ 10
CC(C)c1ccccc1-c1ncc2c(n1)N(Cc1ccc(-c3nc(C(F)(F)F)cn3C)cc1)C(=O)OC2 [Example I-7, 1-([4-[1-methyl-4-(trifluoromethyl)-1H-imidazol-2-yl]phenyl]methyl)-7-[2-(propan-2-yl)phenyl]-1H,2H, 4H-pyrimido[4,5-d][1,3]oxazin-2-one]	≤ 10
COc1ncnc(C2CC2)c1-c1ncc2sc(=O)n(Cc3ccc(-n4nc(C(F)(F)F)cc4C)cc3)c2n1 [Example I-21, 5-(4-cyclopropyl-6-methoxypyrimidin-5-yl)-3-(4-(5-methyl-3-(trifluoromethyl)-1H-pyrazol-1-yl)benzyl)thiazolo[4,5-d]pyrimidin-2(3H)-one]	≤ 10
CC(C)c1ncccc1-c1ncc2c(n1)N(Cc1ccc(-c3nc(C(F)(F)F)cn3C)cc1)C(=O)OC2 [Example I-8, 1-([4-[1-methyl-4-(trifluoromethyl)-1H-imidazol-2-yl]phenyl]methyl)-7-[2-(propan-2-yl)pyridin-3-yl]-1H,2H, 4H-pyrimido[4,5-d][1,3]oxazin-2-one]	10 to 100
CC(C)c1ncccc1-c1ncc2c(n1)N(Cc1ccc(-c3nc(C(F)(F)F)cn3C)cc1)C(=O)C2 [Example I-16, 7-([4-[1-methyl-4-(trifluoromethyl)-1H-imidazol-2-yl]phenyl]methyl)-2-[2-(propan-2-yl)pyridin-3-yl]-5H,6H,7H-pyrrolo[2,3-d]pyrimidin-6-one]	10 to 100
CC(C)c1ncccc1-c1ncc2c(n1)N(Cc1ccc(-c3nc(C(F)(F)F)cn3C)cc1)C(=O)C(C)(C)O2 [Example I-5, 6,6-dimethyl-8-([4-[1-methyl-4-(trifluoromethyl)-1H-imidazol-2-yl]phenyl]methyl)-2-[2-(propan-2-yl)pyridin-3-yl]-6H,7H,8H-pyrimido[5,4-b][1,4]oxazin-7-one]	10 to 100
CC(C)c1ncccc1-c1ncc2ccn(Cc3ccc(-c4nc(C(F)(F)F)cn4C)cc3)c2n1 [Example I-9, 3-[7-([4-[1-methyl-4-(trifluoromethyl)-1H-imidazol-2-yl]phenyl]methyl)-7H-pyrrolo[2,3-d]pyrimidin-2-yl]-2-(propan-2-yl)pyridine]	≤ 10
CC(C)c1ncccc1-c1ncc2oc(=O)n(Cc3ccc(-c4nc(C(F)(F)F)cn4C)cc3)c2n1 [Example I-13]	100 to 1000
CC(C)c1ncccc1-c1ncc2c(n1)N(Cc1ccc(-c3nc(C(F)(F)F)cn3C)cc1)C(=O)C21CC1 [Example I-11, 3′-([4-[1-methyl-4-(trifluoromethyl)-1H-imidazol-2-yl]phenyl]methyl)-5′-[2-(propan-2-yl)pyridin-3-yl]-2′,3′-dihydrospiro[cyclopropane-1,1′-pyrrolo[2,3-d]pyrimidine]-2′-one]	10 to 100
CC(C)c1ncccc1-c1ncc2c(n1)N(Cc1ccc(-c3nc(C(F)(F)F)cn3C3COC3)cc1)C(=O)C2 [Example I-19, 7-([4-[1-(oxetan-3-yl)-4-(trifluoromethyl)-1H-imidazol-2-yl]phenyl]methyl)-2-[2-(propan-2-yl)pyridin-3-yl]-5H,6H,7H-pyrrolo[2,3-d]pyrimidin-6-one]	100 to 1000
CC(C)c1ncccc1-c1ncc2cnn(Cc3ccc(-c4nc(C(F)(F)F)cn4C)cc3)c2n1 [Example I-10, 3-[1-([4-[1-methyl-4-(trifluoromethyl)-1H-imidazol-2-yl]phenyl]methyl)-1H-pyrazolo[3,4-d]pyrimidin-6-yl]-2-(propan-2-yl)pyridine]	10 to 100
CC(C)c1ccccc1-c1ncc2nc(C3COC3)n(Cc3ccc(-n4cccn4)cc3)c2n1 [Example I-15, 8-(oxetan-3-yl)-2-[2-(propan-2-yl)phenyl]-9-[[4-(1H-pyrazol-1-yl)phenyl]methyl]-9H-purine]	100 to 1000
CC(C)c1ncccc1-c1ncc2c(n1)N(Cc1ccc(-c3nc(C(F)(F)F)cn3C)cc1)C(=O)CC2 [Example I-20, 8-([4-[1-methyl-4-(trifluoromethyl)-1H-imidazol-2-yl]phenyl]methyl)-2-[2-(propan-2-yl)pyridin-3-yl]-5H,6H,7H,8H-pyrido[2,3-d]pyrimidin-7-one]	10 to 100
CC(C)c1ccccc1-c1ncc2oc(=O)n(Cc3ccc(-c4nc(C(F)(F)F)cn4C)cc3)c2n1 [Example I-12, 5-(2-isopropylphenyl)-3-(4-(1-methyl-4-(trifluoromethyl)-1H-imidazol-2-yl)benzyl)oxazolo[4,5-d]pyrimidin-2(3H)-one]	≤ 10
COc1ncnc(C2CC2)c1-c1ncc2sc(=O)n(Cc3ccc(-c4nc(C(F)(F)F)cn4C)cc3)c2n1 [Example I-22, 5-(4-cyclopropyl-6-methoxypyrimidin-5-yl)-3-(4-(1-methyl-4-(trifluoromethyl)-1H-imidazol-2-yl)benzyl)thiazolo[4,5-d]pyrimidin-2(3H)-one]	≤ 10
COc1nc2cnc(-c3cccnc3C(C)C)nc2n1Cc1ccc(-c2nc(C(F)(F)F)cn2C)cc1 [Example I-17, 8-methoxy-9-([4-[1-methyl-4-(trifluoromethyl)-1H-imidazol-2-yl]phenyl]methyl)-2-[2-(propan-2-yl)pyridin-3-yl]-9H-purine]	100 to 1000
CC(C)c1ccccc1-c1ncc2sc(=O)n(Cc3ccc(-c4nc(C(F)(F)F)cn4C)cc3)c2n1 [Example I-1, 5-(2-isopropylphenyl)-3-(4-(1-methyl-4-(trifluoromethyl)-1H-imidazol-2-yl)benzyl)thiazolo[4,5-d]pyrimidin-2(3H)-one]	≤ 10
CC(C)c1ccccc1-c1ncc2c(n1)N(Cc1ccc(-c3nc(C(F)(F)F)cn3C)cc1)C(=O)N(C)C2 [Example I-6, 3-methyl-1-([4-[1-methyl-4-(trifluoromethyl)-1H-imidazol-2-yl]phenyl]methyl)-7-[2-(propan-2-yl)phenyl]-1H,2H,3H,4H-[1,3]diazino[4,5-d]pyrimidin-2-one]	10 to 100
CC(C)c1ccccc1-c1ncc2nc(C3CNC3)n(Cc3ccc(-n4cccn4)cc3)c2n1 [Example I-14, 8-(azetidin-3-yl)-2-[2-(propan-2-yl)phenyl]-9-[[4-(1H-pyrazol-1-yl)phenyl]methyl]-9H-purine]	100 to 1000

From patent publication US20240239808A1 (Forma Therapeutics, Inc., priority 2021, published 2024)
